Test results from ChEMBL document CHEMBL4507278 (2021).

What was measured:
[1] = target: Sodium-dependent serotonin transporter (Homo sapiens) (UniProt P31645); conditions: Compound concentration 10.0 uM
[2] = target: Citron Rho-interacting kinase (Homo sapiens) (UniProt O14578); conditions: Compound concentration 1000.0 nM
[3] = target: Tyrosine-protein kinase Fgr (Homo sapiens) (UniProt P09769); conditions: Compound concentration 1000.0 nM
[4] = target: Casein kinase I isoform delta (Homo sapiens) (UniProt P48730); conditions: Compound concentration 1000.0 nM
[5] = target: Interleukin-1 receptor-associated kinase 4 (Homo sapiens) (UniProt Q9NWZ3); conditions: Compound concentration 1000.0 nM
[6] = target: Cyclin-dependent kinase 8 (Homo sapiens) (UniProt P49336); conditions: Compound concentration 1000.0 nM
[7] = target: Mitogen-activated protein kinase 13 (Homo sapiens) (UniProt O15264); conditions: Compound concentration 1000.0 nM
[8] = target: Receptor tyrosine-protein kinase erbB-4 (Homo sapiens) (UniProt Q15303); conditions: Compound concentration 1000.0 nM
[9] = target: Serine/threonine-protein kinase Sgk3 (Homo sapiens) (UniProt Q96BR1); conditions: Compound concentration 1000.0 nM
[10] = target: 5-hydroxytryptamine receptor 1D (Homo sapiens) (UniProt P28221); conditions: Compound concentration 10.0 uM
[11] = target: Activin receptor type-1-like (Homo sapiens) (UniProt P37023); conditions: Compound concentration 1000.0 nM
[12] = tested on: Epidermal growth factor receptor (Homo sapiens), P00533 [L858R]; conditions: Compound concentration 1000.0 nM
[13] = target: Tyrosine-protein kinase BTK (Homo sapiens) (UniProt Q06187); conditions: Compound concentration 1000.0 nM
[14] = target: Phosphatidylinositol 4,5-bisphosphate 3-kinase catalytic subunit delta isoform (Homo sapiens) (UniProt O00329); conditions: Compound concentration 1000.0 nM
[15] = target: Phosphatidylinositol 5-phosphate 4-kinase type-2 beta (Homo sapiens) (UniProt P78356); conditions: Compound concentration 1000.0 nM
[16] = target: Serine/threonine-protein kinase TNNI3K (Homo sapiens) (UniProt Q59H18); conditions: Compound concentration 1000.0 nM
[17] = target: Dual specificity mitogen-activated protein kinase kinase 7 (Homo sapiens) (UniProt O14733); conditions: Compound concentration 1000.0 nM
[18] = target: Focal adhesion kinase 1 (Homo sapiens) (UniProt Q05397); conditions: Compound concentration 1000.0 nM
[19] = target: Fibroblast growth factor receptor 3 (Homo sapiens) (UniProt P22607); conditions: Compound concentration 1000.0 nM
[20] = target: Dual serine/threonine and tyrosine protein kinase (Homo sapiens) (UniProt Q6XUX3); conditions: Compound concentration 1000.0 nM
[21] = tested on: Tyrosine-protein kinase ABL1 (Homo sapiens), P00519 [Q252H]; conditions: Compound concentration 1000.0 nM
[22] = target: Serine/threonine-protein kinase tousled-like 2 (Homo sapiens) (UniProt Q86UE8); conditions: Compound concentration 1000.0 nM
[23] = target: Uncharacterized serine/threonine-protein kinase SBK3 (Homo sapiens) (UniProt P0C264); conditions: Compound concentration 1000.0 nM
[24] = target: Tyrosine-protein kinase Fes/Fps (Homo sapiens) (UniProt P07332); conditions: Compound concentration 1000.0 nM
[25] = target: NT-3 growth factor receptor (Homo sapiens) (UniProt Q16288); conditions: Compound concentration 1000.0 nM
[26] = target: Dual specificity mitogen-activated protein kinase kinase 3 (Homo sapiens) (UniProt P46734); conditions: Compound concentration 1000.0 nM
[27] = target: TGF-beta receptor type-2 (Homo sapiens) (UniProt P37173); conditions: Compound concentration 1000.0 nM
[28] = target: Phosphorylase b kinase gamma catalytic chain, skeletal muscle/heart isoform (Homo sapiens) (UniProt Q16816); conditions: Compound concentration 1000.0 nM
[29] = target: Serine/threonine-protein kinase PRP4 homolog (Homo sapiens) (UniProt Q13523); conditions: Compound concentration 1000.0 nM
[30] = target: Cyclin-dependent kinase-like 2 (Homo sapiens) (UniProt Q92772); conditions: Compound concentration 1000.0 nM
[31] = target: Serine/threonine-protein kinase DCLK3 (Homo sapiens) (UniProt Q9C098); conditions: Compound concentration 1000.0 nM
[32] = target: Wee1-like protein kinase 2 (Homo sapiens) (UniProt P0C1S8); conditions: Compound concentration 1000.0 nM
[33] = target: STE20-like serine/threonine-protein kinase (Homo sapiens) (UniProt Q9H2G2); conditions: Compound concentration 1000.0 nM
[34] = target: Homeodomain-interacting protein kinase 4 (Homo sapiens) (UniProt Q8NE63); conditions: Compound concentration 1000.0 nM
[35] = target: Histamine H4 receptor (Homo sapiens) (UniProt Q9H3N8); conditions: Compound concentration 10.0 uM
[36] = target: Activated CDC42 kinase 1 (Homo sapiens) (UniProt Q07912); conditions: Compound concentration 1000.0 nM
[37] = target: Vascular endothelial growth factor receptor 3 (Homo sapiens) (UniProt P35916); conditions: Compound concentration 1000.0 nM
[38] = target: Tyrosine-protein kinase Fer (Homo sapiens) (UniProt P16591); conditions: Compound concentration 1000.0 nM
[39] = target: Calcium/calmodulin-dependent protein kinase type 1B (Homo sapiens) (UniProt Q6P2M8); conditions: Compound concentration 1000.0 nM
[40] = target: Serine/threonine-protein kinase STK11 (Homo sapiens) (UniProt Q15831); conditions: Compound concentration 1000.0 nM
[41] = target: Serine/threonine-protein kinase PknB (Mycobacterium tuberculosis) (UniProt P9WI81); conditions: Compound concentration 1000.0 nM
[42] = target: Muscarinic acetylcholine receptor M5 (Homo sapiens) (UniProt P08912); conditions: Compound concentration 10.0 uM
[43] = target: Leucine-rich repeat serine/threonine-protein kinase 2 (Homo sapiens) (UniProt Q5S007); conditions: Compound concentration 1000.0 nM
[44] = target: Cyclin-dependent kinase-like 1 (Homo sapiens) (UniProt Q00532); conditions: Compound concentration 1000.0 nM
[45] = target: Ephrin type-B receptor 2 (Homo sapiens) (UniProt P29323); conditions: Compound concentration 1000.0 nM

Muscarinic acetylcholine receptor M5 (Homo sapiens), sequence (P08912 whole entry): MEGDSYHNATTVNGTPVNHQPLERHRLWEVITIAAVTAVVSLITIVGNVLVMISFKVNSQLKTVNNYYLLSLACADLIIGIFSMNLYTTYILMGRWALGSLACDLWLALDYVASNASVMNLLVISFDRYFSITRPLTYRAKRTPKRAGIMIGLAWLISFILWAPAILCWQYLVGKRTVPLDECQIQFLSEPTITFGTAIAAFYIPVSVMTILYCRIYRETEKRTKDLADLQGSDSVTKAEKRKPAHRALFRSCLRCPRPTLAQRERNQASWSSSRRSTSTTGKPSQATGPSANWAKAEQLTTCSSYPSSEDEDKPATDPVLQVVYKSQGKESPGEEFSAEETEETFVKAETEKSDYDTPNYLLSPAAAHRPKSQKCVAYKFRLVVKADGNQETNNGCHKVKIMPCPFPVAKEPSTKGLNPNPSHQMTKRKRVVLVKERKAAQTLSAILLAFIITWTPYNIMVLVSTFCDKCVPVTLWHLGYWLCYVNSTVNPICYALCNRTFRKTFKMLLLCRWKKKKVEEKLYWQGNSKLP
Serine/threonine-protein kinase STK11 (Homo sapiens), sequence (Q15831 whole entry): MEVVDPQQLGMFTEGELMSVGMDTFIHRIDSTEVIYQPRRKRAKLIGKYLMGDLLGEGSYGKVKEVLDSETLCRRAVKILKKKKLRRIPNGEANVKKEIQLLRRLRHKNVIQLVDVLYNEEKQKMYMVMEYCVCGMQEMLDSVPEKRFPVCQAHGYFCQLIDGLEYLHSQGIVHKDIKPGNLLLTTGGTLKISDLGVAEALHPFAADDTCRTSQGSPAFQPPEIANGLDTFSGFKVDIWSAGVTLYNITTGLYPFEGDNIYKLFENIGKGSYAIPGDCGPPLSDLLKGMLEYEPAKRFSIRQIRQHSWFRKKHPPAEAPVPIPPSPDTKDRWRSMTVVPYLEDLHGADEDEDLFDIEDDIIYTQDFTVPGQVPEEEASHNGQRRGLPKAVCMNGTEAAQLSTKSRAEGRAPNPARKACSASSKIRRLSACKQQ
Focal adhesion kinase 1 (Homo sapiens), sequence (Q05397 2-1052 limits assumed): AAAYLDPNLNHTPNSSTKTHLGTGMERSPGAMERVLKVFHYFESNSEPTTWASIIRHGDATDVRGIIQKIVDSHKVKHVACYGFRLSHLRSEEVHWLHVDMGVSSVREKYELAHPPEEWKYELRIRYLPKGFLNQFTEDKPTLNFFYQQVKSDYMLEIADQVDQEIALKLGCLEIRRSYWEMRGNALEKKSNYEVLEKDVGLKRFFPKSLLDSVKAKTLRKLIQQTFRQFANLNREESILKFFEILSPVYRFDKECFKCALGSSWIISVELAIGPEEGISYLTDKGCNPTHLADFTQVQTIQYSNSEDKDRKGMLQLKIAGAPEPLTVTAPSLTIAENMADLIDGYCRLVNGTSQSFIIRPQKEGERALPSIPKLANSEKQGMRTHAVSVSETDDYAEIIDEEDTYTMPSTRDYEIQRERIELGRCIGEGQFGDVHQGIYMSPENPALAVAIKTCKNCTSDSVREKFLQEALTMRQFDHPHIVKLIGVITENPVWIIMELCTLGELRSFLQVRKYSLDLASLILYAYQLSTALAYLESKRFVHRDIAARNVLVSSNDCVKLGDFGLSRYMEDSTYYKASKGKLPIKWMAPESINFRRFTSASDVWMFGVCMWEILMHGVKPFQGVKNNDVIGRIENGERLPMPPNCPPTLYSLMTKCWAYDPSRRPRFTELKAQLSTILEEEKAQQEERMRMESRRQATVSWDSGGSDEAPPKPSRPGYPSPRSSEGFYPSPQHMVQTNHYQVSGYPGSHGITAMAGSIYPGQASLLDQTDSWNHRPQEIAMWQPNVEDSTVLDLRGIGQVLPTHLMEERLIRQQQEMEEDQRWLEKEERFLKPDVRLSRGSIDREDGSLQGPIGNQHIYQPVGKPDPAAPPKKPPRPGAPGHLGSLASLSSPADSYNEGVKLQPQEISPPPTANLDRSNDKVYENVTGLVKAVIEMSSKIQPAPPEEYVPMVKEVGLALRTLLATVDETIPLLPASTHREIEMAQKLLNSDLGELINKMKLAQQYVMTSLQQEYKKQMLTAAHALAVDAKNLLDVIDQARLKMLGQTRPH
Activin receptor type-1-like (Homo sapiens), sequence (P37023 whole entry): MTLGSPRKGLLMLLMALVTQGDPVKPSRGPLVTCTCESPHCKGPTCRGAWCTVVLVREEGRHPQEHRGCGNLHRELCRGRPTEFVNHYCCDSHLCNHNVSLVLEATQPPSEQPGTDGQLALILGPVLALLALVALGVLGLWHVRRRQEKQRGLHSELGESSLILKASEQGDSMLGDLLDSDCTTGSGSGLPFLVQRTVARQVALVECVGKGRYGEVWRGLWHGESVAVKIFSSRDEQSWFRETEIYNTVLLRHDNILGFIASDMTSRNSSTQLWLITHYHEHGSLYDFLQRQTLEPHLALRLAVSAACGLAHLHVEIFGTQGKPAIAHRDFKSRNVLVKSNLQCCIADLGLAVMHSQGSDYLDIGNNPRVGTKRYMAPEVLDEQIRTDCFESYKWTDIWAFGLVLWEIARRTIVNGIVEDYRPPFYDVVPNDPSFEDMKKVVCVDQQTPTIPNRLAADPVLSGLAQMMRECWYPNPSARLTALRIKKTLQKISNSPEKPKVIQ
Tyrosine-protein kinase BTK (Homo sapiens), sequence (Q06187 whole entry, canonical isoform): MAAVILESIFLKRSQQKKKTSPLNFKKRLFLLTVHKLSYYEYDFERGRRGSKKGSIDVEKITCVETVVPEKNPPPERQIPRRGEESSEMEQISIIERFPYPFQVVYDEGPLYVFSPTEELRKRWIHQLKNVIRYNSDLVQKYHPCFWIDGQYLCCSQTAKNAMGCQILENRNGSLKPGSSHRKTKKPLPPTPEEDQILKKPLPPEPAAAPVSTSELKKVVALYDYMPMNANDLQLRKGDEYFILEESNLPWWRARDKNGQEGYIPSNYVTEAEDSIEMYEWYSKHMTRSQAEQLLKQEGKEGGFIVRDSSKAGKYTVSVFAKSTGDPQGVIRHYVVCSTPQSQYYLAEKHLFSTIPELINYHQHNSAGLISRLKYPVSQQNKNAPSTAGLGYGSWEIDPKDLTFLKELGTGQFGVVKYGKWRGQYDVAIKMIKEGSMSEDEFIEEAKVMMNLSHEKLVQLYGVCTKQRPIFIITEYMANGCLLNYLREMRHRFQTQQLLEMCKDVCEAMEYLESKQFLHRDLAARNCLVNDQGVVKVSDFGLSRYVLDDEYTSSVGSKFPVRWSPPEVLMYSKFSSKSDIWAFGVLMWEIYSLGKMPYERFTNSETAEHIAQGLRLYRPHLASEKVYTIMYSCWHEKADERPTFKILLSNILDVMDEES
Cyclin-dependent kinase-like 2 (Homo sapiens), sequence (Q92772 whole entry): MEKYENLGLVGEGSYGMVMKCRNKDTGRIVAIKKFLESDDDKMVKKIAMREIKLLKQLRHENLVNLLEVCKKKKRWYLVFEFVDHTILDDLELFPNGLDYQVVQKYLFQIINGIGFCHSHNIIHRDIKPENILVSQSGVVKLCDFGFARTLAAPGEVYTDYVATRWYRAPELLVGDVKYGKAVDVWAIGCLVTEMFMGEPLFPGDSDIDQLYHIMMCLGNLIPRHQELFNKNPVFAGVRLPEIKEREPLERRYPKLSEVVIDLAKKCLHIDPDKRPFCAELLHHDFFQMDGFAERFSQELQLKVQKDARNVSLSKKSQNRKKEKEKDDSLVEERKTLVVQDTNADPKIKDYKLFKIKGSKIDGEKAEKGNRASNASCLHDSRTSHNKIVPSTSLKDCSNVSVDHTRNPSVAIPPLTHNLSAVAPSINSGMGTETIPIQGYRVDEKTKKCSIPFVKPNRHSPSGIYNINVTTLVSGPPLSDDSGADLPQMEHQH
Uncharacterized serine/threonine-protein kinase SBK3 (Homo sapiens), sequence (P0C264 whole entry): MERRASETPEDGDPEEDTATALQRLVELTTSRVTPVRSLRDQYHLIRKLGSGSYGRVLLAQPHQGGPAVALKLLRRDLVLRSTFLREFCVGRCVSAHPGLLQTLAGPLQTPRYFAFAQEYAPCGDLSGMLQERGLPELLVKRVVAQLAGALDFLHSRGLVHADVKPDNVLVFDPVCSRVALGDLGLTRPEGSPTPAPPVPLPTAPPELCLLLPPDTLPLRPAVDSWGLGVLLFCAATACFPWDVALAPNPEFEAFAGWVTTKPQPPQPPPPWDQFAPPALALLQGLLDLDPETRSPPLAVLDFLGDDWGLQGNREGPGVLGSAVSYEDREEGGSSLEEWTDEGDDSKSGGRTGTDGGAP
Serine/threonine-protein kinase PRP4 homolog (Homo sapiens), sequence (Q13523 whole entry): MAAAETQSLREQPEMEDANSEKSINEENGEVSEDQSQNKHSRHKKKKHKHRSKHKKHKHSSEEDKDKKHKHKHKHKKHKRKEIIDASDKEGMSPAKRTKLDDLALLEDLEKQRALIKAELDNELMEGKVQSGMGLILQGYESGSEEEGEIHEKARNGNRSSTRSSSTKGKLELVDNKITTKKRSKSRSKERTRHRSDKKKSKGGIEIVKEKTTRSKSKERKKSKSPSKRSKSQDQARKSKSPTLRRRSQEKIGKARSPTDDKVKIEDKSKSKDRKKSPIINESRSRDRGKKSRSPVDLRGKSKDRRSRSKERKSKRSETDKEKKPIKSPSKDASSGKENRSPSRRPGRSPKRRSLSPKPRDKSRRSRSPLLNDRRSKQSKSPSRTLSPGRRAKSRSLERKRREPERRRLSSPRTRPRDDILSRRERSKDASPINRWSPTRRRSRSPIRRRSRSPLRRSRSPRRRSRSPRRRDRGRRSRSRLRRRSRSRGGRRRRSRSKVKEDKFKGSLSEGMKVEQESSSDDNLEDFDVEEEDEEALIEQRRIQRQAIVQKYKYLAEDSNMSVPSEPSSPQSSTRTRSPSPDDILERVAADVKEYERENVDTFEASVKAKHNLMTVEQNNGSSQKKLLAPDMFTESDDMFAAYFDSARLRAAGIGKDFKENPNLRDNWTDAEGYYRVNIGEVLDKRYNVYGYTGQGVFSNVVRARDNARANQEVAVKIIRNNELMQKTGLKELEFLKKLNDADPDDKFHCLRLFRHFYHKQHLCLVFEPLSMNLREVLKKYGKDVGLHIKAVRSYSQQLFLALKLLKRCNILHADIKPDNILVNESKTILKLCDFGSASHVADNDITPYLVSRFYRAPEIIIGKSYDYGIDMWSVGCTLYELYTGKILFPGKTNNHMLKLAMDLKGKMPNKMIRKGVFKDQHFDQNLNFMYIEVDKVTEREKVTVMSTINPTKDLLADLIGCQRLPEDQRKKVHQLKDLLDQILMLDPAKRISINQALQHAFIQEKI

Compound: CS(=O)(=O)c1cc(C2(NC(=O)c3cncc4c3cnn4-c3ccc(F)cc3)CC2)ccn1 [BI 639667]
- inhibition [1]: -2.94%
- residual activity [2]: 100%
- residual activity [3]: 100%
- residual activity [4]: 99%
- residual activity [5]: 100%
- residual activity [6]: 100%
- residual activity [7]: 93%
- residual activity [8]: 100%
- residual activity [9]: 100%
- inhibition [10]: 14.5%
- residual activity [11]: 100%
- residual activity [12]: 100%
- residual activity [13]: 97%
- residual activity [14]: 100%
- residual activity [15]: 100%
- residual activity [16]: 64%
- residual activity [17]: 91%
- residual activity [18]: 100%
- residual activity [19]: 100%
- residual activity [20]: 70%
- residual activity [21]: 80%
- residual activity [22]: 100%
- residual activity [23]: 100%
- residual activity [24]: 100%
- residual activity [25]: 90%
- residual activity [26]: 88%
- residual activity [27]: 100%
- residual activity [28]: 78%
- residual activity [29]: 100%
- residual activity [30]: 100%
- residual activity [31]: 100%
- residual activity [32]: 100%
- residual activity [33]: 100%
- residual activity [34]: 100%
- inhibition [35]: 1.36%
- residual activity [36]: 100%
- residual activity [37]: 100%
- residual activity [38]: 100%
- residual activity [39]: 78%
- residual activity [40]: 100%
- residual activity [41]: 99%
- inhibition [42]: 3.92%
- residual activity [43]: 43%
- residual activity [44]: 69%
- residual activity [45]: 100%

Compound: CS(=O)(=O)NCC[C@H](NC(=O)c1cncc2c1cnn2-c1ccc(F)cc1)c1ccnc(S(C)(=O)=O)c1 [BI 9307]
- inhibition [1]: -7.52%
- residual activity [2]: 73%
- residual activity [3]: 100%
- residual activity [4]: 100%
- residual activity [5]: 100%
- residual activity [6]: 100%
- residual activity [7]: 100%
- residual activity [8]: 95%
- residual activity [9]: 100%
- inhibition [10]: 38.9%
- residual activity [11]: 96%
- residual activity [12]: 83%
- residual activity [13]: 100%
- residual activity [14]: 100%
- residual activity [15]: 100%
- residual activity [16]: 100%
- residual activity [17]: 100%
- residual activity [18]: 93%
- residual activity [19]: 100%
- residual activity [20]: 98%
- residual activity [21]: 81%
- residual activity [22]: 100%
- residual activity [23]: 100%
- residual activity [24]: 100%
- residual activity [25]: 100%
- residual activity [26]: 100%
- residual activity [27]: 96%
- residual activity [28]: 75%
- residual activity [29]: 69%
- residual activity [30]: 100%
- residual activity [31]: 93%
- residual activity [32]: 100%
- residual activity [33]: 100%
- residual activity [34]: 100%
- inhibition [35]: -0.39%
- residual activity [36]: 100%
- residual activity [37]: 100%
- residual activity [38]: 100%
- residual activity [39]: 85%
- residual activity [40]: 100%
- residual activity [41]: 93%
- inhibition [42]: 5.99%
- residual activity [43]: 86%
- residual activity [44]: 84%
- residual activity [45]: 92%
